# Reference: patent US20240156789A1, “ORAL FELINE FEED AND METHODS FOR CONTROLLING FLEA INFESTATIONS IN A FELINE” (priority 2021, published 2024)
# Experiments:
# Type in all cases: in vivo
# Ctenocephalides felis [1] = assay: Example 1: efficacy of isoxazoline liquid formulation given by mouth to cats against fleas; conditions: 1.125 mg/kg by mouth daily on days 0-29, liquid formulation, fed
# Text: Methods: A pool of 14 cats are to be preliminarily infested with ˜100 unfed adult C. felis in order to identify cats that can suitably sustain a reliable infestation rate, defined as approximately 50% fleas being live at the end of a 48-hour period. The 12 cats with the highest live flea counts are to be selected for inclusion in the study. The cats are to be randomized and divided into a control group and a treatment group with 6 cats per group.
# The cats are to be housed individually during the study period and are to be fed a commercial dry cat food ration with ad libitum access to water.
# (§1) Each cat in the isoxazoline treatment group is to receive by mouth a liquid formulation of isoxazoline. The dosage of 1.125 mg/kg of isoxazoline is to be administered to the cats on each of days 0-29.
# Cats in the control group are not to receive isoxazoline or any other flea control treatment. Each cat in the treatment group is to be offered its daily ration (dry food) and the individual doses of liquid formulation are to be administered after the individual cat has eaten at least 25% of its total daily ration. After receiving the dose of isoxazoline, the cats are to be allowed to continue eating. This mimics incorporating the isoxazoline in feed. Each cat in the treatment group and the control group is to be experimentally infested with 100 unfed adult fleas on test days −1, 5, 12, 20 and 35. […]
# [2] = Example 1: average plasma concentration of isoxazoline in cats, daily oral liquid dosing; conditions: 1.125 mg/kg daily oral
# Method: as §1
# Using the same study method as described above, blood is to be drawn at 72, 168, 336, 504, 720 and 888 hours after the initial dose of isoxazoline is administered. The average concentration of isoxazoline in the blood can then be determined.
# [3] = Example 5: plasma levels of isoxazoline in cats given two medicated feed formulations; conditions: 1 mg/kg daily, days 0-14
# Method: Methods: A pool of cats are to be randomly assigned to a single control group and 2 treatment groups with 6 cats per group.
# (§2) The cats are to be housed individually during the study period and are to have ad libitum access to water.
# Each cat in a treatment group (test groups 2 and 3) is to receive one of two medicated daily feeds from study days 0-14. The medicated daily feed is to be offered to the cats for 1 hour on each of days 0-14 according to TABLE 3.
# Blood is to be drawn at day 0 (day of the first administration of medicated feed) and days 2, 4, 7, 10, 14, 21 and 30 after the initial dose of isoxazoline is administered. The average concentration of isoxazoline in the blood for each of the medicated feed formulations (treatment groups 2 and 3) can then be determined.
# Ctenocephalides felis [4] = assay: Example 6: efficacy of Mivorilaner in medicated feed in cats against fleas
# Text: FIG. 1. A graph of the arithmetic mean efficacy for treatment Group 2 (vertical hash) and Group 3 (horizontal hash). Percent efficacy=[AM fleas CONTROL−AM fleas TREATED]/AM fleas CONTROL Efficacy measured at 2, 9, 16, 30, and 37 days after Initial Treatment.
# Methods: A pool of cats are to be preliminarily infested with ˜100 unfed adult C. felis fleas in order to produce cats that can suitably sustain a reliable infestation rate, defined as approximately 50% retention of live fleas at the end of a 48-hour period. The cats with the highest live flea counts are to be randomly assigned to a single control group (Group 1) and 2 medicated feed treatment groups (Groups 2 and 3) with 4 cats per group. The cats in groups 2 and 3 will receive Mivorilaner.
# as §2
# Each cat in a treatment group (Groups 2 and 3) is to receive a medicated daily feed from study days 0-29 according to TABLE 4.
# The cats are to be fasted overnight prior to each daily treatment. The daily dose of Mivorilaner is to be mixed into a small portion (approximately 25% of the cat's daily dietary needs) of wet canned cat food. Approximately 4 hours after the medicated feed has been initially offered, the remaining medicated feed, if any, will be mixed with the 75% unmedicated daily feed for each cat. […]
structure (smiles),measurement,setting,value
"O=C(CNC(=O)c1sc(C2=NO[C@@](c3cc(Cl)c(F)c(Cl)c3)(C(F)(F)F)C2)c2c1CCC2)NCC(F)F [mivorilaner, 3-[(5S)-5-(3,5-dichloro-4-fluorophenyl)-5-(trifluoromethyl)-4,5-dihydroisoxazol-3-yl]-N-[2-[(2,2-difluoroethyl)amino]-2-oxoethyl]-5,6-dihydro-4H-cyclopenta[c]thiophene-1-carboxamide]",reduction in live flea counts over the control group,Ctenocephalides felis [1],at least 95%
same,average plasma concentration,[2]; at 72 hours,about 1011 ng/mL
same,average plasma concentration,[2]; at 504 hours,about 4088 ng/mL
same,average plasma concentration,"[2]; at 888 hours, approximately 8 days after the final dose",about 3025 ng/mL
same,plasma concentrations,[3],consistent between treatment groups 2 and 3
same,Percent efficacy (reduction in live and moribund flea counts),"Ctenocephalides felis [4]; Group 2, 0.75 mg/kg daily in wet canned cat food days 0-29, by day 9",100%
same,Percent efficacy (reduction in live and moribund flea counts),"Ctenocephalides felis [4]; Group 3, 1.5 mg/kg daily in wet canned cat food days 0-29, by day 9",100%
